According to publication PMC10850561, “Eutypellaolides A–J, Sesquiterpene diversity expansion of the polar fungus Eutypella sp. D-1” (Frontiers in Microbiology, 2024):

Target: T1, PTP1B (Homo sapiens, UniProt P18031)
T1 construct: gene PTPN1
T1 sequence (P18031 1-435): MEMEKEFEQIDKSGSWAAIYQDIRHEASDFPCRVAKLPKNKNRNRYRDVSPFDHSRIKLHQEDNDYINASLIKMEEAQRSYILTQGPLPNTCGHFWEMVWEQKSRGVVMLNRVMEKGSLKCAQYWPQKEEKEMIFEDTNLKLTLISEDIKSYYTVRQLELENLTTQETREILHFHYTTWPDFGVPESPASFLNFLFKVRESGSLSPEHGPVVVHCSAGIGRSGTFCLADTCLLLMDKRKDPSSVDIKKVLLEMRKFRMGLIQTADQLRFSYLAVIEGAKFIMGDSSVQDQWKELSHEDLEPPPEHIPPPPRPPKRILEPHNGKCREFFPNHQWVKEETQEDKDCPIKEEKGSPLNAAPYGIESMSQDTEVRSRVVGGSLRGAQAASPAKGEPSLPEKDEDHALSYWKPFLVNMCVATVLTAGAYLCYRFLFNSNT
Assay: PTP1B enzyme inhibition assay in 96-well microplates
Type: biochemical

Row | IC50 [µM] | SMILES
1 | 44.8 | CO[C@]1(C)C2=CC3=C(CO)C(=O)OC3=C[C@]2(C)CC[C@@H]1O [compound 5, Eutypellaolide E]
2 | 43.2 | CC1=CCC[C@@H]2CC3=C(CO)C(=O)OC3=CC12C (stereo partly drawn) [compound 11, eut-Guaiane]
3 | 49.5 | CC1=CC(=O)C[C@@]2(C)C=C3OC(=O)C(CO)=C3C=C12 [compound 14, 2-one-13hydroxy-3,5,8,7(11)-eudesmatetraen-12,8-olide]
